Data as given in patent publication US20080113900A1, “Pharmaceutical compositions and therapeutic applications for the use of a synthetic vitamin B12 derivative, glutathionylcobalamin” (priority 2006, published 2008).
“And” between values parts separate entries of the source, which are not always exact repeats. Equal values may be shown once.

Test system: SK-HEP-1 cells
Assay: NACCbl protection from homocysteine with inhibition of Hsp32/Hsp70 by Sn(IX) protoporphyrin, quercitin or siRNA (MTS assay)

## CC(=O)NC(C[S-])C(=O)O.CC1=C2N=C(C=C3N=C(C(C)=C4[N-]C(C(CC(N)=O)C4(C)CCC(=O)NCC(C)OP(=O)([O-])OC4C(CO)OC(n5cnc6cc(C)c(C)cc65)C4O)C4(C)N=C1C(CCC(N)=O)C4(C)CC(N)=O)C(CCC(N)=O)C3(C)C)C(CCC(N)=O)C2(C)CC(N)=O.[Co+3] [NACCbl, N-acetyl-L-cysteinylcobalamin]
SK-HEP-1, NACCbl 30 μM two hours with or without Sn(IX)PP/quercetin, then Hcy conc. 200 two hours, label Hcy = Hcy alone
  Cell viability by MTS assay (FIG. 11), replicates 1-6: 1.378 and 1.167 and 1.33 and 1.456 and 1.491 and 1.537
Sn(IX) protoporphyrin or siRNA, p<0.001
  Reduction of the protection by NACCbl on inhibition of Hsp32: 10-20%
As E45, Hcy conc. 0
  Cell viability by MTS assay (FIG. 11), replicates 1-6: 2.885 and 2.698 and 2.821 and 2.771 and 2.691 and 2.7
As E45, Hcy conc. 1.78
  Cell viability by MTS assay (FIG. 11), replicates 1-6: 2.647 and 2.551 and 2.789 and 2.89 and 2.549 and 2.611
As E45, Hcy conc. 3.125
  Cell viability by MTS assay (FIG. 11), replicates 1-6: 2.453 and 2.338 and 2.36 and 2.317 and 2.418 and 2.535
As E45, Hcy conc. 6.25
  Cell viability by MTS assay (FIG. 11), replicates 1-6: 2.41 and 2.4 and 2.322 and 2.201 and 2.115 and 2.187
As E45, Hcy conc. 12.5
  Cell viability by MTS assay (FIG. 11), replicates 1-6: 2.21 and 2.11 and 2.045 and 2.065 and 2.101 and 2.324
As E45, Hcy conc. 25
  Cell viability by MTS assay (FIG. 11), replicates 1-6: 2.1 and 2.19 and 1.879 and 1.937 and 1.779 and 1.837
As E45, Hcy conc. 50
  Cell viability by MTS assay (FIG. 11), replicates 1-6: 1.678 and 1.832 and 1.881 and 1.73 and 1.74 and 1.855
As E45, Hcy conc. 100
  Cell viability by MTS assay (FIG. 11), replicates 1-6: 1.678 and 1.592 and 1.694 and 1.773 and 1.732 and 1.639
Chemically and directly
  Protection by NACCbl on inhibition of both Hsp32 and Hsp70 together: totally removed protection
Quercitin or siRNA, p<0.001
  Reduction of the protection by NACCbl on inhibition of Hsp70: 20-40%
